From publication PMC3274767 (2012)

Tests used:
[1] = target: T1, GABAA receptor β3 subunit (α1β3 GABAAR) (Homo sapiens, UniProt P14867+P28472); experiment: [3H]muscimol radioligand filtration binding to purified receptor; conditions: cited from earlier work
T1 sequence (P28472 26-473): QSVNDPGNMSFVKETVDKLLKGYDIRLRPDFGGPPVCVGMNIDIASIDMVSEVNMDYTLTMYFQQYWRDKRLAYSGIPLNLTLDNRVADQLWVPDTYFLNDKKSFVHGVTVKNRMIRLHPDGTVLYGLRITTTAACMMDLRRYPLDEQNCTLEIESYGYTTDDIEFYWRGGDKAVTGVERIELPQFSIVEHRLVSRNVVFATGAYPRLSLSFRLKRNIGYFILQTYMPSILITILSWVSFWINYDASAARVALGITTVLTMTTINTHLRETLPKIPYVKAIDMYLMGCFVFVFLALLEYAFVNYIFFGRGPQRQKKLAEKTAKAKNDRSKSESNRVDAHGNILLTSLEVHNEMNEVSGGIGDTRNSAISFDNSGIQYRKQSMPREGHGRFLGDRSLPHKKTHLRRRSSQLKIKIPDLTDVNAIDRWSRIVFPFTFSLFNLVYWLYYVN
T1 sequence (P14867 28-456): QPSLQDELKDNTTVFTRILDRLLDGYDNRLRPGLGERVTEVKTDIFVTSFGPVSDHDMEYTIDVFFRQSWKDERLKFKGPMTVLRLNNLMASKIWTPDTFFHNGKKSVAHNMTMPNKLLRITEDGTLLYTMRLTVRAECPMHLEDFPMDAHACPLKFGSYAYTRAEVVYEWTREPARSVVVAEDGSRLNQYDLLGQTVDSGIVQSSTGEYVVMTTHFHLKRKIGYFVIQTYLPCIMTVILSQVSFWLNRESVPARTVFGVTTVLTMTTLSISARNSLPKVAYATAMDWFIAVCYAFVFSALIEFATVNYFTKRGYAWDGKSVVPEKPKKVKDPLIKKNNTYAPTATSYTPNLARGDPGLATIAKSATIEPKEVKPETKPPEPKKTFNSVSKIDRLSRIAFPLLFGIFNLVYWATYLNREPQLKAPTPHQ

[2] = target: T2, GABAA receptor α1 subunit (α1β3 GABAAR) (Homo sapiens, UniProt P14867+P28472); experiment: photoaffinity labeling with residue identification; assay type: binding
T2 sequence (P14867 28-456): T1 sequence (P14867 28-456)
T2 sequence (P28472 26-473): T1 sequence (P28472 26-473)

[3] = target: T1, GABAA receptor β3 subunit (α1β3 GABAAR); experiment: photoaffinity labeling with residue identification; assay type: binding

Row | Compound | Kd [1] [nM] | EC50 [2] [nM] | EC50 [3] [nM]
1 | NCc1cc(=O)[nH]o1 [muscimol, 3-hydroxy-5-aminomethylisoxazole] | 10 | – | –
2 | CC(c1ccccc1)n1cncc1C(=O)OCCC1(C)N=N1 (stereo not drawn) [azietomidate, 2-(3-methyl-3H-diaziren-3-yl) ethyl 1-(1-phenylethyl)-1H-imidazole-5-carboxylate] | – | 2700 ± 1000 | 2700 ± 1000
